According to patent US20250352615A1, “COMPOSITIONS AND METHODS FOR THE MODULATION OF PIEZO1 AND TRPV4” (Duke University, priority 2021, published 2025):

Assays:
KPCY cells = assay: Orthotopic KPCY cell PDAC model with TRPV4 blocker via osmotic minipump; assay type: in vivo, mouse; details: GSK2193874 20 mg/mL, 100 μL in subcutaneous osmotic minipump, 20 days; preliminary
Method: In this experimental model, KPCY cells (100,000 cells in 25 μL phosphate buffer saline pH 7, containing 1% Matrigel) are injected into the tail region of the pancreas with and without a TRPV4 blocker to investigate if a TRPV4 inhibitor can inhibit PDAC growth and stop cancer cell metastasis. For accurate and continuous dosing, the TRPV4 blocker is placed in an infusion osmotic minipump (ALZET) implanted subcutaneously. Mice are observed for 20 days. On day 20, liver and pancreas tissue are processed for microscopic imaging and quantification of mRNA levels. Serum samples are collected for analysis and quantification of pro-metastatic factors.
Tumor growth and serum SAA were measured 20 days after transplantation of KPCY cells into the pancreas, as described in FIG. 33. Mice were treated with GSK2193874 (20 mg/mL) dissolved in 6% cavitron saline buffer and 100 μL drug solution was loaded in an osmotic minipump implanted subcutaneously for 20 days.
KPCY cells resuspended in PBS+1% matrigel after trypsinization. Either 10,000 or 100,000 cells in 20 μl PBS were injected into the pancreatic tail. […]
Orthotopic injection of KPCY cells with implantation of micro-osmotic pump (Alzet, 1004) filled with either vehicle (6% cavitron W7 HP7 in water—Ashland) or GSK2193874 at 20 mg/mL. Mice were euthanized 20 days later, and organs were measured and harvested. […]

TRPV4 [1] = biological target: T1, TRPV4 (Mus musculus, UniProt Q9EPK8); assay: Calcium imaging of TRPV4-mediated [Ca2+]i in pancreatic acini (agonists, shear stress, Yoda1 sustained phase); assay type: cell-based
T1 construct: endogenous in cells; host or cells: freshly isolated mouse pancreatic acini (C57BL/6J WT)
T1 sequence (Q9EPK8 whole entry): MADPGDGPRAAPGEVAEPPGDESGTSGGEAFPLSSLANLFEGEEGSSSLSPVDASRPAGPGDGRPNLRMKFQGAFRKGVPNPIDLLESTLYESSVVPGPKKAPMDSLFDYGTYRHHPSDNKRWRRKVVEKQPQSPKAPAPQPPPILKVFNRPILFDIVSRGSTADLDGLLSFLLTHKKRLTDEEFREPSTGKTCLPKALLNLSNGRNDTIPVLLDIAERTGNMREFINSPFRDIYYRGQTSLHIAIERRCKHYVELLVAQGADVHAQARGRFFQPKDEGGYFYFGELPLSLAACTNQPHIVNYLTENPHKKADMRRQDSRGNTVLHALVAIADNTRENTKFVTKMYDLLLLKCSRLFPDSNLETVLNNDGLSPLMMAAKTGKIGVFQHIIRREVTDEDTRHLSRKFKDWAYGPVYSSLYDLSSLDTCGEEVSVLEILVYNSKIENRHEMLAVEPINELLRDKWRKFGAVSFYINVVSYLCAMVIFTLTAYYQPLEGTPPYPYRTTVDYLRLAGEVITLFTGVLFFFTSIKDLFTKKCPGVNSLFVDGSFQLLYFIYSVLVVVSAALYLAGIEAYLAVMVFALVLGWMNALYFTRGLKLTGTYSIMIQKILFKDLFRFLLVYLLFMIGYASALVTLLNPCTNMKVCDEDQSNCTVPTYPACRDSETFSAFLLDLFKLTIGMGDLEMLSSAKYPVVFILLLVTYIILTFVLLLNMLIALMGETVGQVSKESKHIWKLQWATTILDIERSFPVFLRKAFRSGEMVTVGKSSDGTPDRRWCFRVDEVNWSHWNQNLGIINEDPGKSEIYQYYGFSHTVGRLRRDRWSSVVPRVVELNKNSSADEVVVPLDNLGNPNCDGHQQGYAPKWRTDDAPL
Method: (§1) Mouse pancreatic acini were isolated using a standard collagenase digestion protocol. Isolated acini were plated on a thin-layered, Matrigel-coated, glass-bottom, culture plate (MatTek, P35G-0-14-C). Freshly isolated acini were used in each experiment.
Parallel-plate fluid flow chambers (μ-Slide I 0.4 Luer, and μ-Slide I 0.2 Luer from Ibidi GmbH) were used to measure the shear stress-induced changes in intracellular calcium, mitochondrial depolarization, and trypsin activation. The constant flow rate with shear stress (T) was determined as follows: τ=η×[…] φ for μ-Slide I 0.4 Luer and τ=η×330.4 φ for μ-Slide I 0.2 Luer, where η=viscosity of the medium and φ=flow rate (according to the manufacturer's instructions, Ibidi).
(§2) Calcium imaging in pancreatic acini was performed as previously described. The chemicals used in calcium imaging experiments included the following: Yoda1 (Tocris; 5586), GsMTx4 (Abcam; ab141871), 5′,6′-EET (Santa Cruz Biotechnology; sc-221066), AA (Millipore Sigma; A3611), HC067047 (Tocris; 4100), GSK1016790A (Millipore Sigma; G0798), RN1734 (Tocris; 3746), AACOCF3 (Tocris; 1462), YM26734 (Tocris; 2522), GF109203X (Tocris; 0741), and CCK8 (Sigma-Aldrich).

TRPV4 [2] = biological target: T1, TRPV4; assay: Calcium imaging of TRPV4-mediated [Ca2+]i in mouse PSCs; assay type: cell-based
Method: (§3) Mouse and human PSCs were isolated using collagenase digestion. Modified Krebs Henseleit Buffer (KHB) solution (100 mL) was prepared as previously described by Romac et al., Nat. Commun. 9(1):1715 (2018). Pancreatic tissue was digested with 2 mg of collagenase NB 8 (SERVA, catalog 17456) dissolved in 10 mL of modified KHB solution containing 1 mg soybean trypsin inhibitor (SBTI 1-S; Millipore Sigma, catalog T9003) and 20 mg BSA (Thermo Fisher Scientific; BP1600-100). Digestion solution (5 mL) was used to inflate the pancreas. Pancreas with 5 mL of digestion solution was incubated in a shaking water bath for 10 minutes at 37° C. The solution was then discarded. The pancreas tissue was cut into small pieces and digested with fresh 5 mL digestion buffer. Tissue was incubated in a shaking water bath for 40 minutes at 37° C. The cells were then separated from tissue by pipetting up-down with a 10 mL pipette and passed sequentially through a 70 μm and a 40 μm cell strainer. The filtrate was centrifuged at 150×g for 3 minutes at room temperature. The cells were washed with 10 mL Leibovitz's media (Thermo Fisher Scientific, catalog 11415-064), passed through a 20 μm filter, and centrifuged at 80×g for 3 minutes at room temperature. The supernate was removed, and isolated stellate cells were plated on a thin-layered Matrigel-coated glass bottom culture plate (MatTek, P35G-0-14-C). Before plating the cells, Matrigel solution (Corning, catalog 354234) at a ratio of 1.5:100 DMEM/F12 (Thermo Fisher Scientific, catalog 11330-032) was poured onto the culture plate and incubated for 2 hr at 37° C. to form a thin layer of Matrigel coating. Matrigel mixture was removed, and the plate was washed with PBS before cells were plated. Cell culture media, DMEM/F12 with 5% FBS was used for mouse stellate cells. Fresh, human pancreatic tissue was digested with collagenase as described above with modifications. […] The cell viability following Yoda1 treatment was analyzed using the Live/Dead cell imaging kit (Thermo Fisher Scientific, catalog R37601). […]

TRPV4 [3] = biological target: T2, TRPV4 (Homo sapiens, UniProt Q9HBA0); assay: Calcium imaging of TRPV4-mediated [Ca2+]i in human PSCs; assay type: cell-based
T2 construct: Fresh, human pancreatic tissue was digested with collagenase as described above with modifications; endogenous in cells; host or cells: primary human pancreatic stellate cells from fresh human pancreatic tissue
T2 sequence (Q9HBA0 whole entry): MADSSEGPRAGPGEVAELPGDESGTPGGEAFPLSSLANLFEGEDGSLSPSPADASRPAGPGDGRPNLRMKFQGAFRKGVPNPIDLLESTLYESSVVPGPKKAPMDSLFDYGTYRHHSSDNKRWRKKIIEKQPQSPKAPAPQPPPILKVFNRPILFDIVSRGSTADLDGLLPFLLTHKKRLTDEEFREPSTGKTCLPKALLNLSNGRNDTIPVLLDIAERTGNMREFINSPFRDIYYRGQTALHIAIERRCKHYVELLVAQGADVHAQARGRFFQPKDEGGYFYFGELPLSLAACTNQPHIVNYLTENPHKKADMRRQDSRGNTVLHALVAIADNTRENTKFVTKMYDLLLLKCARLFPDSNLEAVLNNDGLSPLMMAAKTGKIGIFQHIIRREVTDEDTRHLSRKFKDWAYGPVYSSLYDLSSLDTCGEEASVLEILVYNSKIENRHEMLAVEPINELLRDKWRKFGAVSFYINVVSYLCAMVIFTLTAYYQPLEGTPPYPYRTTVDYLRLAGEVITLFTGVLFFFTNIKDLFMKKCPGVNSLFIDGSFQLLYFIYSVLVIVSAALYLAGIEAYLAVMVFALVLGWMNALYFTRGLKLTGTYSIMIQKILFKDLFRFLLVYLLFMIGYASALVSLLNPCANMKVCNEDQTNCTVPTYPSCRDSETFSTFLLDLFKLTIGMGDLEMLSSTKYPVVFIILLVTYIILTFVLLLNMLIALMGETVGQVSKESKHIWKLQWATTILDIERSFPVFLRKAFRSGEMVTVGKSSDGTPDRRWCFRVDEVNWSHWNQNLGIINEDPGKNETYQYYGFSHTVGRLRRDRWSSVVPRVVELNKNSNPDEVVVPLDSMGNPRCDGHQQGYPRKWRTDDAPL
Method: as §3, with “temperature.” for “temperature. The supernate was removed, and isolated stellate cells were plated on a thin-layered Matrigel-coated glass bottom culture plate (MatTek, P35G-0-14-C). Before plating the cells, Matrigel solution (Corning, catalog 354234) at a ratio of 1.5:100 DMEM/F12 (Thermo Fisher Scientific, catalog 11330-032) was poured onto the culture plate and incubated for 2 hr at 37° C. to form a thin layer of Matrigel coating. Matrigel mixture was removed, and the plate was washed with PBS before cells were plated. Cell culture media, DMEM/F12 with 5% FBS was used for mouse stellate cells. Fresh, human pancreatic tissue was digested with collagenase as described above with modifications.”

pancreatic acini = assay: CCK-induced [Ca2+]i in pancreatic acini; assay type: cell-based, mouse; details: HC067 1 μM; CCK 1 nM
Method: as §1, §2

## O=C(NC1(c2ccccc2)CC1)c1c(CN2CCC(N3CCCCC3)CC2)c(-c2cccc(C(F)(F)F)c2)nc2cc(Br)ccc12 [GSK2193874]
KPCY cells
  pancreatic cancer (PDAC) growth: inhibited pancreatic cancer growth
  serum SAA levels: reduced serum SAA levels

## CC(C)C[C@H](NC(=O)c1cc2ccccc2s1)C(=O)N1CCN(C(=O)[C@H](CO)NS(=O)(=O)c2ccc(Cl)cc2Cl)CC1 [GSK101]
TRPV4 [1]; GSK101 50 nM, arachidonic acid 20 μM, 5′,6′-EET 5 μM
  agonist effect on [Ca2+]i: induced a significant increase in [Ca^2+]i
TRPV4 [2]; GSK101 100 nM, quiescent mouse PSCs
  agonist effect on [Ca2+]i: produced a sustained elevation in [Ca^2+]i
TRPV4 [3]; GSK101 100 nM, quiescent human PSCs
  agonist effect on [Ca2+]i: produced a sustained elevation in [Ca^2+]i

## Cc1c(C(=O)Nc2cccc(C(F)(F)F)c2)cc(-c2ccccc2)n1CCCN1CCOCC1 [HC067]
TRPV4 [1]; HC067 100 nM
  effect on AA- and 5′,6′-EET-induced [Ca2+]i increases: inhibited
TRPV4 [1]; HC067 100 nM, RN1734 30 μM
  effect on GSK101 (50 nM)-induced [Ca2+]i increase: inhibited
TRPV4 [1]; HC067 1 μM, 12 dyne/cm^2 for 30 seconds
  effect on shear stress-induced sustained [Ca2+]i elevation: blocked the sustained [Ca^2+]i elevation, leaving only transient alterations in [Ca^2+]i
TRPV4 [1]; HC067 1 μM, Yoda1 25 μM
  effect on Yoda1-stimulated sustained [Ca2+]i increase: completely blocked the Yoda1-stimulated (25 μM) sustained increase in [Ca^2+]i
TRPV4 [2]; HC067 1 μM, mouse PSCs
  effect on GSK1016790A-induced sustained [Ca2+]i elevation: blocked
TRPV4 [3]; HC067 1 μM, human PSCs
  effect on GSK1016790A-induced sustained [Ca2+]i elevation: blocked
Pancreatic acini
  effect on CCK-stimulated peak or sustained [Ca2+]i: did not affect the CCK-stimulated (1 nM) peak or sustained [Ca^2+]i changes
